Test results reported in PubChem BioAssay (NCI).
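Where inhibition never reached the appropriate level, the endpoint shown equals the highest concentration tested. Otherwise, values were interpolated linearly from a five-concentration, 48-hour dose response in 96-well plates. GI50: concentration for 50% inhibition of growth. TGI denotes the concentration required for complete inhibition of growth.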

Assays:
Test in all cases: NCI-60 cell line screen, 48 h
OVCAR-8 ovarian = tested on: OVCAR-8 ovarian
A549 NSCLC = tested on: A549 NSCLC
SK-OV-3 ovarian = tested on: SK-OV-3 ovarian
CCRF-CEM leukemia = tested on: CCRF-CEM leukemia
PC-3 prostate = tested on: PC-3 prostate
UACC-62 melanoma = tested on: UACC-62 melanoma
OVCAR-4 ovarian = tested on: OVCAR-4 ovarian
MDA-MB-468 breast = tested on: MDA-MB-468 breast
LOX IMVI melanoma = tested on: LOX IMVI melanoma
SNB-19 CNS = tested on: SNB-19 CNS
M14 melanoma = tested on: M14 melanoma
IGROV1 ovarian = tested on: IGROV1 ovarian
UACC-257 melanoma = tested on: UACC-257 melanoma
UO-31 renal = tested on: UO-31 renal
OVCAR-5 ovarian = tested on: OVCAR-5 ovarian
MDA-MB-231 breast = tested on: MDA-MB-231 breast
CAKI-1 renal = tested on: CAKI-1 renal
OVCAR-3 ovarian = tested on: OVCAR-3 ovarian
K-562 leukemia = tested on: K-562 leukemia
SF-268 CNS = tested on: SF-268 CNS
MALME-3M melanoma = tested on: MALME-3M melanoma
COLO 205 colon = tested on: COLO 205 colon
T-47D breast = tested on: T-47D breast
ACHN renal = tested on: ACHN renal
786-0 renal = tested on: 786-0 renal
HCT-116 colon = tested on: HCT-116 colon
MCF7 breast = tested on: MCF7 breast
SK-MEL-28 melanoma = tested on: SK-MEL-28 melanoma

For `O=C(NN1C(=O)/C(=C/C=C/c2ccc([N+](=O)[O-])o2)SC1=S)c1ccncc1`, the GI50 (OVCAR-8 ovarian) was 354 nM, the TGI (OVCAR-8 ovarian) was 3220 nM and the GI50 (A549 NSCLC) was 2860 nM. It also gave a TGI (A549 NSCLC) of 10800 nM, a GI50 (SK-OV-3 ovarian) of 3030 nM and a TGI (SK-OV-3 ovarian) of 9270 nM. For the same molecule, the GI50 (CCRF-CEM leukemia) was 346 nM, the TGI (CCRF-CEM leukemia) was 3570 nM and the GI50 (PC-3 prostate) was 1930 nM. For the same molecule, the TGI (PC-3 prostate) was 4960 nM, the GI50 (UACC-62 melanoma) was 377 nM and the TGI (UACC-62 melanoma) was 1450 nM. For the same molecule, the GI50 (OVCAR-4 ovarian) was 1620 nM, the TGI (OVCAR-4 ovarian) was 3270 nM and the GI50 (MDA-MB-468 breast) was 1200 nM. The TGI (MDA-MB-468 breast) was 2640 nM, the GI50 (LOX IMVI melanoma) was 203 nM and the TGI (LOX IMVI melanoma) was 440 nM. It also gave a GI50 (SNB-19 CNS) of 1800 nM, a TGI (SNB-19 CNS) of 3930 nM and a GI50 (M14 melanoma) of 547 nM. It also gave a TGI (M14 melanoma) of 1930 nM, a GI50 (IGROV1 ovarian) of 1390 nM and a TGI (IGROV1 ovarian) of 2700 nM. For the same molecule, the GI50 (UACC-257 melanoma) was 1530 nM, the TGI (UACC-257 melanoma) was 3310 nM and the GI50 (UO-31 renal) was 1160 nM. It also gave a TGI (UO-31 renal) of 2390 nM, a GI50 (OVCAR-5 ovarian) of 1900 nM and a TGI (OVCAR-5 ovarian) of 3380 nM. For the same molecule, the GI50 (MDA-MB-231 breast) was 655 nM, the TGI (MDA-MB-231 breast) was 1940 nM and the GI50 (CAKI-1 renal) was 1470 nM. For the same molecule, the TGI (CAKI-1 renal) was 2820 nM, the GI50 (OVCAR-3 ovarian) was 1280 nM and the TGI (OVCAR-3 ovarian) was 3010 nM. For the same molecule, the GI50 (K-562 leukemia) was 294 nM, the TGI (K-562 leukemia) was greater than 100000 nM and the GI50 (SF-268 CNS) was 1690 nM. For the same molecule, the TGI (SF-268 CNS) was 3950 nM, the GI50 (MALME-3M melanoma) was 240 nM and the TGI (MALME-3M melanoma) was 541 nM. It also gave a GI50 (COLO 205 colon) of 1520 nM, a TGI (COLO 205 colon) of 2960 nM and a GI50 (T-47D breast) of 1730 nM. It also gave a TGI (T-47D breast) of 4160 nM, a GI50 (ACHN renal) of 1460 nM and a TGI (ACHN renal) of 2770 nM. The GI50 (786-0 renal) was 960 nM, the TGI (786-0 renal) was 2390 nM and the GI50 (HCT-116 colon) was 239 nM. The TGI (HCT-116 colon) was 565 nM, the GI50 (MCF7 breast) was 451 nM and the TGI (MCF7 breast) was 2070 nM. For the same molecule, the GI50 (SK-MEL-28 melanoma) was 1540 nM and the TGI (SK-MEL-28 melanoma) was 2980 nM.
